According to patent publication US10363299B2, “Compositions and methods for preventing and treating rhinovirus infections” (priority 2015, dated 2019):
Values joined by “and” are separate entries in the source; they are usually repeats but may differ in a detail not shown here. Identical values can stand only once.

What was measured:
[1] = test system: RV-specific CD4+ T cells; test: Direct ex vivo pMHCII tetramer staining of non-stimulated PBMCs; assay type: cell-based, human; design: key to Validated: Y means validated; conditions: for Ex Vivo Frequency (# per 10^6 CD4): directly ex vivo, without culture, one value per subject
Text: (§1) Peptide libraries consisting of 20mers with a 12 amino acid overlap were generated to span the VP1, VP2 and VP4 protein sequences of RV-A16, and VP1 and VP2 protein sequences of RV-A39 (UniprotKB accession # Q82122, Q5XLP5). […] Biologically relevant pMHCII complexes were identified by tetramer-guided epitope mapping (TGEM). This involved 2 steps: First, PBMC cultures established from subjects with known HLA-DR types were stimulated with RV peptide pools derived from VP1, VP2, or VP4, and then stained with pMHCII tetramer pools composed of HLA-DR molecules corresponding to those expressed in the test subject; Second, positive signals were de-convoluted by repeating and staining with single-peptide tetramers. Tetramers that gave strong positive signals (˜1% of total CD4+ T cells) in the single peptide-tetramer screen in more than one subject, were then re-tested for their ability to detect RV-specific CD4+ T cells in non-stimulated PBMCs (denoted as ex vivo analysis) in multiple subjects.
(§2) All experiments were performed in subjects expressing HLA-DR molecules corresponding to the selected tetramer. Precursor frequencies of circulating tetramer+ cells were then calculated by established methods. Tetramer+ cells were phenotyped for surface markers by staining PBMCs with PE-conjugated tetramers, labeling with anti-PE magnetic beads, enriching with an AutoMACS separator (Miltenyi Biotec, Auburn, Calif., USA), and then counterstaining for surface markers. A tetramer displaying an irrelevant peptide, GAD555-567, was used as a staining control. For simplicity, identified RV-A16 peptide epitopes were given a numerical designation.

[2] = test system: CD4+ T cells; test: Tetramer-guided epitope mapping (TGEM): pMHCII tetramer staining of PBMC cultures stimulated with RV peptides; assay type: cell-based, human; conditions: one value per subject
Text: as §1, §2

[3] = HLA allele 1*0101 tetramer, reliable ex vivo signal (tetramer+ cells ≥2 per million CD4+ T cells in ≥3 subjects)
[4] = HLA allele 1*0701 tetramer, reliable ex vivo signal
[5] = HLA allele 1*0101 tetramer, tetramer-positive CD4+ T cells in peptide-stimulated PBMC cultures
[6] = HLA allele 1*0701 tetramer, peptide-stimulated PBMC cultures
[7] = HLA allele 1*1501 tetramer, peptide-stimulated PBMC cultures
[8] = HLA allele DRB5 tetramer, peptide-stimulated PBMC cultures
[9] = HLA allele 1*1101 tetramer, peptide-stimulated PBMC cultures
[10] = HLA allele 1*0401 tetramer, peptide-stimulated PBMC cultures
[11] = HLA allele DRB5 tetramer, reliable ex vivo signal

PRFSLPFLSIASAYYMFYDG [VP1P23]
Ex Vivo Frequency (# per 10^6 CD4) ([1]; HLA allele 1*0101 tetramer): 3 # per 10^6 CD4 and 8 # per 10^6 CD4 and 13 # per 10^6 CD4 and 2 # per 10^6 CD4 | Validated [1, 3]: Y | Ex Vivo Frequency (# per 10^6 CD4) ([1]; HLA allele 1*0701 tetramer): 3 # per 10^6 CD4 and 8 # per 10^6 CD4 and 13 # per 10^6 CD4 and 2 # per 10^6 CD4 | Validated [1, 4]: Y | Ex Vivo Frequency (# per 10^6 CD4) ([1]; HLA allele DRB5 tetramer): 11 # per 10^6 CD4 | In Vitro Frequency (% CD4) [2, 5]: 8.37 % CD4 and 0.35 % CD4 and 2.37 % CD4 | In Vitro Frequency (% CD4) [2, 6]: 1.84 % CD4 and 0.74 % CD4 | In Vitro Frequency (% CD4) [2, 7]: 0.28 % CD4 and 0.78 % CD4 and 0 % CD4 | In Vitro Frequency (% CD4) [2, 8]: 2.03 % CD4 and 2.90 % CD4

EQLHKVKVVTRIYHKAKHTK [VP1P29]
Ex Vivo Frequency (# per 10^6 CD4) ([1]; HLA allele 1*1101 tetramer): 0 # per 10^6 CD4 (2×) and 3 # per 10^6 CD4 | In Vitro Frequency (% CD4) [2, 9]: 3.35 % CD4 and 2.79 % CD4

QIRRKFEMFTYARFDSEITM [VP1P14]
Ex Vivo Frequency (# per 10^6 CD4) ([1]; HLA allele 1*0401 tetramer): 4 # per 10^6 CD4 | In Vitro Frequency (% CD4) [2, 10]: 0.59 % CD4 and 0.96 % CD4

VVTNDMGTLCSRIVTSEQLH [VP1P27]
In Vitro Frequency (% CD4) [2, 6]: 0 % CD4 and 0.13 % CD4

ISNIVPITVSISPMCAEFSG [VP2P30]
In Vitro Frequency (% CD4) [2, 7]: 0.46 % CD4 and 0 % CD4

TSSNRFYTLDSKMWNSTSKG [VP2P8]
Ex Vivo Frequency (# per 10^6 CD4) ([1]; HLA allele 1*0404 tetramer): 2 # per 10^6 CD4 | In Vitro Frequency (% CD4) ([2]; HLA allele 1*0404 tetramer, peptide-stimulated PBMC cultures): 0.77 % CD4 and 1.82 % CD4 | In Vitro Frequency (% CD4) [2, 9]: 0 % CD4 (2×) and 0.26 % CD4

TSKGWWWKLPDALKDMGIFG [VP2P10]
Ex Vivo Frequency (# per 10^6 CD4) ([1]; HLA allele DRB5 tetramer): 60 # per 10^6 CD4 and 24 # per 10^6 CD4 and 136 # per 10^6 CD4 | Validated [1, 11]: Y | In Vitro Frequency (% CD4) [2, 8]: 3.93 % CD4 and 4.49 % CD4 and 0.38 % CD4

VPYVNAVPMDSMVRHNNWSL [VP2P26]
Ex Vivo Frequency (# per 10^6 CD4) ([1]; HLA allele 1*0701 tetramer): 4 # per 10^6 CD4 and 16 # per 10^6 CD4 and 14 # per 10^6 CD4 and 5 # per 10^6 CD4 | Validated [1, 4]: Y | In Vitro Frequency (% CD4) [2, 6]: 1.57 % CD4 and 0.84 % CD4

QSGTNASVFWQHGQPFPRFS [VP1P21]
Ex Vivo Frequency (# per 10^6 CD4) ([1]; HLA allele DRB5 tetramer): 11 # per 10^6 CD4 and 28 # per 10^6 CD4 and 20 # per 10^6 CD4 | Validated [1, 11]: Y | In Vitro Frequency (% CD4) [2, 8]: 3.91 % CD4 and 0.95 % CD4

FWQHGQPFPRFSLPFLSIAS [VP1P22]
Ex Vivo Frequency (# per 10^6 CD4) ([1]; HLA allele DRB5 tetramer): 10 # per 10^6 CD4 and 4 # per 10^6 CD4 | In Vitro Frequency (% CD4) [2, 8]: 3.52 % CD4 and 0.74 % CD4

PHQFINLRSNNSATLIVPYV [VP2P24]
Ex Vivo Frequency (# per 10^6 CD4) ([1]; HLA allele 1*0101 tetramer): 17 # per 10^6 CD4 and 148 # per 10^6 CD4 and 26 # per 10^6 CD4 | Validated [1, 3]: Y | In Vitro Frequency (% CD4) [2, 5]: 2.82 % CD4 and 3.17 % CD4 and 11.3 % CD4 | In Vitro Frequency (% CD4) [2, 8]: 0 % CD4 (2×) and 0.67 % CD4

LLVVMIPEHQLATVNKGNVN [VP2P16]
In Vitro Frequency (% CD4) [2, 7]: 0 % CD4 and 3 % CD4

PSVEACGYSDRIIQITRGDS [VP2P1]
In Vitro Frequency (% CD4) [2, 9]: 1.59 % CD4 and 1.16 % CD4 and 0.66 % CD4

NWLNFDGTLLGNLLIFPHQF [VP2P22]
Ex Vivo Frequency (# per 10^6 CD4) ([1]; HLA allele 1*0401 tetramer): 1 # per 10^6 CD4 | In Vitro Frequency (% CD4) [2, 5]: 0.35 % CD4 and 0 % CD4 (2×) | In Vitro Frequency (% CD4) ([2]; HLA allele 1*0301 tetramer, peptide-stimulated PBMC cultures): 2.61 % CD4 and 0.75 % CD4 | In Vitro Frequency (% CD4) [2, 10]: 3.38 % CD4 and 0.89 % CD4 | In Vitro Frequency (% CD4) [2, 9]: 0 % CD4 (2×) and 1.31 % CD4

SIASAYYMFYDGYDGDTYKS [VP1P24]
In Vitro Frequency (% CD4) [2, 7]: 0.31 % CD4 and 0 % CD4 (2×)

LDSKMWNSTSKGWWWKLPDA [VP2P9]
In Vitro Frequency (% CD4) [2, 9]: 0.22 % CD4 and 0 % CD4 (2×)
